Patent publication US20220220095A1, “N-((HETEROARYL)METHYL)-1-TOSYL-1H-PYRAZOLE-3-CARBOXAMIDE DERIVATIVES AS Kv3 POTASSIUM CHANNEL ACTIVATORS FOR TREATING NEUROLOGICAL AND [sequence] DISORDERS” (H. Lundbeck A/S, priority 2019, published 2022)

Molecular target: T1, hKv3.1b (Homo sapiens, UniProt P48547)
T1 construct: expressed in transfected cells
T1 sequence (P48547 1-585 isoform P48547-2): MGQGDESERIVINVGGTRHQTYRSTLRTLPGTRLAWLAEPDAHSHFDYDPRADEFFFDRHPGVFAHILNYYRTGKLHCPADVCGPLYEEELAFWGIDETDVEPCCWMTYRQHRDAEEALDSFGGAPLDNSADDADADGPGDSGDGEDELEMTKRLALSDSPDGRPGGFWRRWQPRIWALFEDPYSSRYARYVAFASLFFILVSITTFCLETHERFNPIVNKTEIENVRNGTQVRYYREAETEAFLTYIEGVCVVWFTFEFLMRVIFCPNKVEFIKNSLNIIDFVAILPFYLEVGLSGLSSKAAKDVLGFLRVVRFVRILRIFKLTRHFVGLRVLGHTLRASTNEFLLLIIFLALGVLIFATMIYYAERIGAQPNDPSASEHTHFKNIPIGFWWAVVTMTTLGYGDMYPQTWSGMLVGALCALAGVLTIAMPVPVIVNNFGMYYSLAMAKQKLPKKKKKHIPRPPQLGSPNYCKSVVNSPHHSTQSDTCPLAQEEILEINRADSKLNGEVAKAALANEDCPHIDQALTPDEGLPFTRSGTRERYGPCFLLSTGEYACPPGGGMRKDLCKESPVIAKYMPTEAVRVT
Test: Automated whole-cell patch-clamp (QPatch-16x) on HEK-293 cells stably expressing hKv3.1b: shift of voltage threshold for channel activation
Assay type: cell-based
Details: HEK-293 hKv3.1b; for ECdelta5mV: concentration needed to shift the threshold 5 mV, read out from fitted concentration response curve; for Max Delta threshold: maximum absolute shift of activation threshold to more hyperpolarized potentials at the tested concentrations (0.37, 1.11, 3.33, 10, 30 μM)
Protocol: HEK-293 cells stably expressing hKv3.1b was used for the experiments. Cells were cultured in DMEM medium supplemented with 10% Fetal Bovine Serum, 100 ug/mL Geneticidin and 100 u/mL Penicillin/Streptomycin (all from Gibco). Cells were grown to 80-90% confluency at 37° C. and 5% CO2. On the day of the experiment the cells were detached from the tissue culture flasks by Detachin and resuspended in serum free medium containing 25 mM HEPES and transferred to the cell hotel of the QPatch. The cells were used for experiments 0-5 hours after detachment.
Patch-clamp recordings were performed using the automated recording system QPatch-16x (Sophion Bioscience, Denmark). Cells were centrifuged, SFM removed and the cells were resuspended in extracellular buffer containing (in mM): 145 NaCl, 4 KCl, 1 MgCl2, 2 CaCl2, 10 HEPES and 10 glucose (added fresh on the day of experiment); pH 7.4 adjusted with NaOH, 305 mOsm adjusted with sucrose.
Single cell whole-cell recordings were carried out using an intracellular solution containing (in mM): 120 KCl, 32.25/10 KOH/EGTA, 5.374 CaCl2, 1.75 MgCl2, 10 HEPES, 4 Na2ATP (added fresh on the day), pH 7.2 adjusted with KOH, […] adjusted with sucrose. Cell membrane potentials were held at −80 mV and currents were evoked by voltage steps (200 ms duration) from −70 mV to +10 mV (in 10 mV increments).
Leak subtraction protocol was applied at −33% of the sweep amplitude, and serial resistance values were constantly monitored.
Any cell where serial resistance exceeded 25 MOhm, membrane resistance less than 200 MOhm or current size at −10 mV less than 200 pA was eliminated from the subsequent analysis.
Data analysis was performed using Sophion's QPatch assay software in combination with Microsoft Excel™ (Redmond, Wash., USA).
Current voltage relationships were plotted from the peak current at the individual voltage steps normalized to the vehicle addition at 10 mV. The voltage threshold for channel activation was defined as 5% activation of the peak current at 10 mV in presence of vehicle. The activity of the compounds was described as the ability to shift this current voltage relationship to more hyperpolarized potentials and is given as the maximum absolute shift possible at the tested concentrations (0.37, 1.11, 3.33, 10, 30 μM). Concentration response curves were plotted from the threshold shift at the individual concentrations and were fitted excel fit model 205 sigmodal dose-response model (fit=A+((B−A)/1+((C/x)^D)))), where A is the minimum value, B the maximum value, C the EC50 value and D the slope of the curve. The concentration needed to shift the threshold 5 mV was readout from this curve (ECdelta 5 mV).

ECdelta5mV	Max Delta threshold	SMILES
2.6 µM	23 mV	Cc1ccc(S(=O)(=O)n2ccc(C(=O)NCc3ncc(C)cn3)n2)cc1 [Compound 15, 1-(4-methylbenzene-1-sulfonyl)-N-[(5-methylpyrimidin-2-yl)methyl]-1H-pyrazole-3-carboxamide]
3.9 µM	15 mV	Cc1cnc(CNC(=O)c2ccn(S(=O)(=O)c3ccccc3C)n2)o1 [Compound 17, 1-(2-methylbenzene-1-sulfonyl)-N-[(5-methyl-1,3-oxazol-2-yl)methyl]-1H-pyrazole-3-carboxamide]
7.3 µM	13 mV	Cc1cccc(S(=O)(=O)n2ccc(C(=O)NCc3ncc(C)o3)n2)c1 [Compound 18, 1-(3-methylbenzene-1-sulfonyl)-N-[(5-methyl-1,3-oxazol-2-yl)methyl]-1H-pyrazole-3-carboxamide]
2.4 µM	17 mV	Cc1cccc(S(=O)(=O)n2ccc(C(=O)NCc3cc(C)no3)n2)c1 [Compound 19, 1-(3-methylbenzene-1-sulfonyl)-N-[(3-methyl-1,2-oxazol-5-yl)methyl]-1H-pyrazole-3-carboxamide]
3.9 µM	12 mV	Cc1ccc(CNC(=O)c2ccn(S(=O)(=O)c3cccc(C)c3)n2)nc1 [Compound 20, 1-(3-methylbenzene-1-sulfonyl)-N-[(5-methylpyridin-2-yl)methyl]-1H-pyrazole-3-carboxamide]
3.7 µM	16 mV	Cc1cccc(S(=O)(=O)n2ccc(C(=O)NCc3cnn(C)c3)n2)c1 [Compound 21, 1-(3-methylbenzene-1-sulfonyl)-N-[(1-methyl-1H-pyrazol-4-yl)methyl]-1H-pyrazole-3-carboxamide]
3.7 µM	14 mV	Cc1cccc(S(=O)(=O)n2ccc(C(=O)NCc3ccn(C)n3)n2)c1 [Compound 22, 1-(3-methylbenzene-1-sulfonyl)-N-[(1-methyl-1H-pyrazol-3-yl)methyl]-1H-pyrazole-3-carboxamide]
5.3 µM	13 mV	Cc1noc(CNC(=O)c2ccn(S(=O)(=O)c3ccccc3C)n2)n1 [Compound 23, 1-(2-methylbenzene-1-sulfonyl)-N-[(3-methyl-1,2,4-oxadiazol-5-yl)methyl]-1H-pyrazole-3-carboxamide]
2 µM	23 mV	Cc1ccc(S(=O)(=O)n2ccc(C(=O)NCc3cnccn3)n2)cc1 [Compound 24, 1-(4-methylbenzene-1-sulfonyl)-N-[(pyrazin-2-yl)methyl]-1H-pyrazole-3-carboxamide]
6.5 µM	13 mV	Cc1cnc(CNC(=O)c2ccn(S(=O)(=O)c3ccccc3C)n2)nc1 [Compound 25, 1-(2-methylbenzene-1-sulfonyl)-N-[(5-methylpyrimidin-2-yl)methyl]-1H-pyrazole-3-carboxamide]
2.9 µM	16 mV	Cc1ccccc1S(=O)(=O)n1ccc(C(=O)NCc2ccn(C)n2)n1 [Compound 26, 1-(2-methylbenzene-1-sulfonyl)-N-[(1-methyl-1H-pyrazol-3-yl)methyl]-1H-pyrazole-3-carboxamide]
3.3 µM	18 mV	Cc1ccc(CNC(=O)c2ccn(S(=O)(=O)c3ccccc3C)n2)nc1 [Compound 27, 1-(2-methylbenzene-1-sulfonyl)-N-[(5-methylpyridin-2-yl)methyl]-1H-pyrazole-3-carboxamide]
2.4 µM	22 mV	Cc1ccccc1S(=O)(=O)n1ccc(C(=O)NCc2cnn(C)c2)n1 [Compound 28, 1-(2-methylbenzene-1-sulfonyl)-N-[(1-methyl-1H-pyrazol-4-yl)methyl]-1H-pyrazole-3-carboxamide]
3.1 µM	22 mV	Cc1cc(CNC(=O)c2ccn(S(=O)(=O)c3ccccc3C)n2)on1 [Compound 29, 1-(2-methylbenzene-1-sulfonyl)-N-[(3-methyl-1,2-oxazol-5-yl)methyl]-1H-pyrazole-3-carboxamide]
3.4 µM	15 mV	Cc1ccc(S(=O)(=O)n2ccc(C(=O)NCc3ncc(C)o3)n2)cc1 [Compound 30, 1-(4-methylbenzene-1-sulfonyl)-N-[(5-methyl-1,3-oxazol-2-yl)methyl]-1H-pyrazole-3-carboxamide]
4.1 µM	13 mV	Cc1cc(CNC(=O)c2ccn(S(=O)(=O)c3ccc(F)cc3)n2)on1 [Compound 31, 1-(4-fluorobenzene-1-sulfonyl)-N-[(3-methyl-1,2-oxazol-5-yl)methyl]-1H-pyrazole-3-carboxamide]
4.3 µM	12 mV	Cc1ccc(S(=O)(=O)n2cc(C)c(C(=O)NCc3cnc(C)cn3)n2)cc1 [Compound 32, 4-methyl-1-(4-methylbenzene-1-sulfonyl)-N-[(5-methylpyrazin-2-yl)methyl]-1H-pyrazole-3-carboxamide]
2.8 µM	12 mV	Cc1ccc(S(=O)(=O)n2ccc(C(=O)NCc3cnsc3)n2)cc1 [Compound 33, 1-(4-methylbenzene-1-sulfonyl)-N-[(1,2-thiazol-4-yl)methyl]-1H-pyrazole-3-carboxamide]
2.8 µM	17 mV	Cc1ccc(CNC(=O)c2ccn(S(=O)(=O)c3ccc(F)cc3)n2)nc1 [Compound 34, 1-(4-fluorobenzene-1-sulfonyl)-N-[(5-methylpyridin-2-yl)methyl]-1H-pyrazole-3-carboxamide]
4.8 µM	12 mV	Cn1ccc(CNC(=O)c2ccn(S(=O)(=O)c3ccc(F)cc3)n2)n1 [Compound 35, 1-(4-fluorobenzene-1-sulfonyl)-N-[(1-methyl-1H-pyrazol-3-yl)methyl]-1H-pyrazole-3-carboxamide]
1.5 µM	17 mV	COc1ccc(S(=O)(=O)n2ccc(C(=O)NCc3ncc(C)o3)n2)cc1 [Compound 36, 1-(4-methoxybenzene-1-sulfonyl)-N-[(5-methyl-1,3-oxazol-2-yl)methyl]-1H-pyrazole-3-carboxamide]
2.4 µM	27 mV	COc1ccc(S(=O)(=O)n2ccc(C(=O)NCc3ncc(C)cn3)n2)cc1 [Compound 37, 1-(4-methoxybenzene-1-sulfonyl)-N-[(5-methylpyrimidin-2-yl)methyl]-1H-pyrazole-3-carboxamide]
1.1 µM	21 mV	COc1ccc(S(=O)(=O)n2ccc(C(=O)NCc3cc(C)no3)n2)cc1 [Compound 38, 1-(4-methoxybenzene-1-sulfonyl)-N-[(3-methyl-1,2-oxazol-5-yl)methyl]-1H-pyrazole-3-carboxamide]
1.6 µM	21 mV	Cc1ccc(S(=O)(=O)n2ccc(C(=O)NCc3ccn(C)n3)n2)cc1 [Compound 39, 1-(4-methylbenzene-1-sulfonyl)-N-[(1-methyl-1H-pyrazol-3-yl)methyl]-1H-pyrazole-3-carboxamide]
